The structures appear in SMILES notation. ≈ marks a conversion by molar mass, not a printed value. Some results are limits rather than exact numbers.

Common to all, as to assay type: cell-based
One data set has as its system PANC1-CSC. Kind of data set: MTS cell viability assay, PANC1-CSC. The following applies: Table 6, tumor stem cell, 72 hours; read-out: IC50 against PANC1-CSC. As for the experimental part: (§1) Primary viability screening: (1) the synthesized compounds 3a to 13d were respectively dissolved in DMSO to prepare a 40 μg/mL cannabicyclol and cannabicyclol derivative solutions.
(§2) (2) A control group: a 200 μL DMSO solvent.
(§3) (3) The solutions of compounds 3a to 13d were diluted in a twofold gradient to obtain cannabicyclol and cannabicyclol derivative solutions at concentrations of 40 μg/mL, 20 μg/mL, 10 μg/mL, 5 μg/mL, 2.5 μg/mL, 1.25 μg/mL, and 0.625 μg/mL, and 0.3125 μg/mL, respectively.
(§4) (4) Three glioblastoma stem cells (GSC-3, GSC-12, and GSC-18), three pancreatic cancer cell-derived stem cells (PANC-1-CSC, BXPC-3-CSC, and ASPC1-CSC), three liver cancer cell-derived stem cells (HepG2-CSC, MHCC97H-CSC, and SMMC7721-CSC), HEK-293T cells, 16 tumor cells (U251, U87, T98G, PANC1, BXPC3, ASPC1, HepG2, MHCC97H, SMMC7721, PC3, SKOV3, MDA-MB231, A549, HCT116, HEC-1B, MKN28), and differentiated glioblastoma stem cells (GSC-3diff and GSC-12diff) derived from GSC-3 and GSC-12 (all of the cells were provided by the Laboratory of Tumor Animal Model Preparation and Application Research, West China Hospital, Sichuan University) were inoculated into a 96-well plate at a concentration of 2×10^4 cells/well, and 100 μL of culture medium was then added to each well; […]
(§5) (10) The absorbance value at 490 nm was measured on an enzyme labeling apparatus, and the IC50 value was calculated.

The test system of the next data set is SMMC7721. The experiment in a line: MTS cell viability assay, SMMC7721. The following applies: Homo sapiens, SMMC-7721; Table 7, 72 hours; read-out: IC50 against SMMC7721. As to the method: as §1, §2, §3, §4, §5
In a further data set the test system is MHCC97H-CSC. The experiment in a line: MTS cell viability assay, MHCC97H-CSC. The following applies: Table 6, tumor stem cell, 72 hours; read-out: IC50 against MHCC97H-CSC. As for the experimental part: as §1, §2, §3, §4, §5
(In general: Tetrazolium dyes change colour on reduction, which living cells bring about.)

A further data set has as its system U251. The experiment in a line: MTS cell viability assay, U251. As to the method: as §1, §2, §3
(§6) (4) Three glioblastoma stem cells (GSC-3, GSC-12, and GSC-18), three pancreatic cancer cell-derived stem cells (PANC-1-CSC, BXPC-3-CSC, and ASPC1-CSC), three liver cancer cell-derived stem cells (HepG2-CSC, MHCC97H-CSC, and SMMC7721-CSC), HEK-293T cells, 16 tumor cells (U251, U87, T98G, PANC1, BXPC3, ASPC1, HepG2, MHCC97H, SMMC7721, PC3, SKOV3, MDA-MB231, A549, HCT116, HEC-1B, MKN28), and differentiated glioblastoma stem cells (GSC-3diff and GSC-12diff) derived from GSC-3 and GSC-12 (all of the cells were provided by the Laboratory of Tumor Animal Model Preparation and Application Research, West China Hospital, Sichuan University) were inoculated into a 96-well plate at a concentration of 2×10^4 cells/well, and 100 μL of culture medium was then added to each well;
(§7) (5) 2) HEK-293T, GSC-3diff, GSC-12diff, and the 16 tumor cells were added with DMEM, 10% FBS, and 1% double antibody culture medium. Cancer stem cells (CSCs) were added with serum-free stem cell medium consisting of DMEM/F12, EGF (20 ng/mL), bFGF (20 ng/mL), B27 (1×), and 1% double antibody culture medium.
(§8) (6) Inoculated cells were put into a cell culture incubator for 24 hours, and after the cells were well adhered to the wall, the culture medium in the 96-well plate was discarded.
(§9) (7) 200 μL cannabicyclol and cannabicyclol derivatives solutions at different concentrations were added to the cultured cells.
(§10) (8) The experiment was set up with 3 replicates.
(§11) (9) The 96-well plate was placed in a cell culture incubator, and incubation was continued at 37° C. and 5% CO2 for 72 hours. Then, 100 μL of cannabicyclol and cannabicyclol derivative solution per well was discarded (100 μL of DMSO solvent was discarded for the control group), and 20 μL of LMTS (CellTiter AQueous Non-Radioactive Cell Proliferation Assay, #G3581) was mixed and continued to be placed in the cell incubator for 2 hours of incubation.
as §5

Data set [1] in a line: MTS cell viability assay, HEK-293T (293T) normal cells. The note with it: human; primary viability screening, 72 hours, MTS; test concentration not stated; read-out: Cell viability in 293T (%). As to the method: as §1, §2, §3, §6, §7, §8, §9, §10, §11, §5
The test system of another data set is HEK-293T. Described as above. The note with it: Homo sapiens, HEK-293T, 72 h, read-out: IC50 against HEK-293T. As to the method:
as §1, §2, §3, §6, §7, §8, §9, §10, §11, §5

Data set [2] deals with 9 types of cancer stem cells. The experiment in a line: MTS cell viability assay, summary over 9 types of cancer stem cells. The note with it: FIG. 3, CBL solution at different concentrations. As for the experimental part:
as §1, §2, §3, §4, §5

Another data set relates to BXPC3-CSC. Kind of data set: MTS cell viability assay, BXPC3-CSC. The following applies: Table 6, tumor stem cell, 72 hours; read-out: IC50 against BXPC3-CSC. As for the experimental part: as §1, §2, §3, §4, §5
The subject of another data set is PANC1. The experiment in a line: MTS cell viability assay, PANC1. The following applies: Homo sapiens, PANC-1; Table 7, 72 hours; read-out: IC50 against PANC1. As for the experimental part:
as §1, §2, §3, §4, §5

In a further data set the test system is MDA-MB231. Kind of data set: MTS cell viability assay, MDA-MB231. The note with it: Homo sapiens, MDA-MB-231; Table 7, 72 hours; read-out: IC50 against MDA-MB231. As for the experimental part:
as §1, §2, §3, §4, §5

Take `CCCCCc1cc(O)c2c(c1)OC1(C)CCC3C1C2C3(C)C` (centres unmarked) [Compound 3a, cannabicyclol]: the IC50 was 13 µg/mL (≈ 41.3 µM) in the data set on PANC1-CSC; > 40 µg/mL with SMMC7721; 5.32 µg/mL (≈ 16.9 µM) in the data set on MHCC97H-CSC; > 40 µg/mL in the data set on U251 (Homo sapiens, U-251, 72 h, read-out: IC50 against U251); > 40 µg/mL in the data set with HEK-293T; 2.19 µg/mL (≈ 6.96 µM) in the data set on BXPC3-CSC. Also, the IC50 with PANC1 and in the data set with MDA-MB231 was > 40 µg/mL each time. Moreover, the “Cell viability in U251 (%)” value with U251 (primary viability screening, 72 hours, MTS, test concentration not stated) was found to be 54%. In addition, the viability at 72 h in data set [1] came to 82%. Moreover, the “cell viability of 9 types of cancer stem cells at different concentrations” value in [2] is “decreased with increasing concentrations”.

Usually IC50 stands for the concentration that gives 50% inhibition. What is called viability is a read-out of living cells in per cent, often relative to untreated cells.

The record behind these values is patent US20250353825A1, “CANNABICYCLOL DERIVATIVES AND PREPARATION METHODS THEREOF” (priority 2023, published 2025).
